Results from patent US20250262192A1, “PROGNOSTIC PATHWAYS FOR HIGH RISK SEPSIS PATIENTS” (KONINKLIJKE PHILIPS N.V., priority 2021, published 2025).
“And” between values parts separate entries of the source, which are not always exact repeats. Identical values can stand only once. “Also recorded” adds a separate entry of the source.

How the values were obtained:
AR signaling pathway = assay: THP-1 sepsis treatment model, qPCR-based STP activity score; assay type: cell-based; conditions: for Effect on AR PAS in LPS-stimulated THP-1 monocytes: THP-1 monocyte sepsis treatment model (Table 11); for Average AR STP activity score: 24 hours
Procedure: (§1) In the treatment model the pathway inhibitor and LPS were added at the same time and the THP-1 cells were incubated for 24 hours prior to isolating RNA and determining pathway activities.
(§2) For the first application, THP-1 cells were pre-incubated for 24 hours with the drug of choice, and subsequently LPS was added for 24 hours. For the treatment application, the drug and LPS were added simultaneously to the cells for 24 hours. Importantly: Some drugs needs processing in the body to become effective, this is the case for some of the androgen receptor (AR) pathway inhibitors, such as bicalutamide. In this case we have also tested the active variant of the drug (in the case of bicalutamide: (R-)bicalutamide).
(§3) LPS is considered the main mediator of the sepsis symptoms. An in vitro experiment was designed where monocytes were stimulated with LPS and subsequently treated with a variety of inhibitors. Monocytes were chosen as they have been described to play a major role in sepsis, see for example Sukhacheva, [34], Clinical Laboratory Int. 26 Aug.
(§4) Sepsis treatment model: For the treatment application, the drug and LPS were added simultaneously to the cells for 24 hours. Compounds and concentrations are described in Table 11 and Table 12 for healthy volunteer PBMCs.
(§5) After stimulation cells were harvested and RNA was extracted using the RNeasy mini kit (Qiagen, 74104). qPCR-based STP activity scores were calculated using the Philips Research OncoSignal platform (www.philips.com/oncosignal), as described herein.
(§6) Two concentrations of LPS 0.5 and 5 ng/ml were used in the experiments, furthermore for the THP-1 cell line an higher passage number (px-53-55) and a lower passage number (px-13-15) were used (Table 11). the THP-1 cell line with the lower passage was more reactive towards LPS activation compared to the higher passage number (data not shown).

[1] = system: TGFbeta signaling pathway; assay: as above; assay type: cell-based; conditions: for Effect on TGFbeta PAS in LPS-stimulated THP-1 monocytes: THP-1 monocyte sepsis treatment model (Table 11); for Average TGFb STP activity score: 24 hours
Procedure: as §1, §2, §3, §4, §5, §6

AR pathway [2] = assay: PBMCs of healthy volunteers stimulated with LPS with or without drugs, pathway activity score; assay type: cell-based, human; conditions: for Healthy volunteers showing AR PAS decrease: experiment 2, PBMCs, LPS 0.5 ng/ml + drug, Etanercept: not significantly; for AR PAS: PBMCs of individual healthy volunteers
Procedure: as §4
(§7) PBMC samples from healthy volunteers and sepsis patients were obtained via Tissue solutions. Briefly, cryopreserved PBMCs were first washed with washing buffer (PBS/1% BSA/2 mM EDTA), centrifuged and pellet resuspended in culture medium (RPM11640 without phenol red+8.5% charcoal stripped FBS+1% Glx+1% p/s). 0.5·10^5-1·10^6 cells were seeded per well in 24 wells plate and rested for 1 hour before treatment experiment. 10 PBMC samples from healthy donors were used to; (1) measure the baseline pathway levels, (2) activate with LPS
(§8) PBMCs of healthy volunteers were stimulated with 5 ng/ml LPS for 24 hours in combination with (R)-Bicalutamide and (R)-Bicalutamide+Vactosertib (experiment 1). In experiment 2, (R)-Bicalutamide and etanercept were tested with 0.5 ng/ml LPS (Table 12A for exp 1 and Table 12B for exp 2).

TGFbeta pathway [3] = assay: as above; assay type: cell-based, human; conditions: for Healthy volunteers showing TGFbeta PAS decrease: experiment 2, PBMCs, LPS 0.5 ng/ml + drug, Etanercept: not significantly; for TGFbeta PAS: PBMCs of individual healthy volunteers
Procedure: as §4, §7, §8

AR pathway [4] = assay: PBMCs of sepsis patients treated in vitro 24 hours with inhibitors, pathway activity score; assay type: cell-based, human; parameters: AR Pathway activity scores of sepsis PBMC patients: scale not given here
Procedure: as §7
(§9) Sepsis treatment model: PBMC derived from sepsis patients (n=20) were treated 24 hours with compounds, DMSO or combination of compounds. (PBMC from healthy and sepsis patients are originating from the same hospital to minimize bias in sample prep). After stimulation cells were harvested and RNA was extracted using the RNeasy mini kit (Qiagen, 74104). qPCR was performed using the Philips Research OncoSignal platform.
(§10) In total 18 PBMCs sepsis samples were treated for 24 hours with selected inhibitors (and combinations), 6 patient samples per experiment.

TGFbeta pathway [5] = assay: as above; assay type: cell-based, human; parameters: scale not given here
Procedure: as §7, §9, §10

[6] = system: AR cellular signaling pathway; assay: THP-1 sepsis prevention model, qPCR-based STP activity score; assay type: cell-based
[7] = system: TGFbeta cellular signaling pathway; assay: as above; assay type: cell-based
[8] = THP-1 px 13-15, LPS 0.5 ng/ml alone or with Etanercept 10 ug/ml
[9] = THP-1 px 13-15, LPS 0.5 ng/ml alone or with compound, Vactosertib 1 uM, Etanercept 1 ug/ml, R-bicalutamide 25 uM + Etanercept 0.1 ug/ml, R-bicalutamide 25 uM + Filgotinib 10 uM
[10] = experiment 2, LPS 0.5 ng/ml alone, + Etanercept 10 ug/ml, or + (R)-Bicalutamide 25 uM
[11] = EXP 1, individual patient samples, Vactosertib 1 uM, Vactosertib 1 uM + R-bicalutamide 25 uM, Etanercept 10 ug/ml, R-bicalutamide 25 uM
[12] = THP-1 px 13-15, LPS 0.5 ng/ml alone or with compound, (R)-Bicalutamide 25 uM, N-desmethyl Enzalutamide 2 uM, N-Desmethyl-Apalutamide 3 uM
[13] = THP-1 px 13-15, LPS 5 ng/ml alone or with Resatorvid 10 uM
[14] = EXP 2, individual patient samples, Resatorvid 10 uM, D4-abiraterone 10 uM, A-485 100 nM, Galunisertib 10 uM
[15] = 24 hrs Vactosertib or DMSO, then 24 hrs LPS
[16] = 24 hrs Vactosertib, then 24 hrs PBS
[17] = THP-1 px 53-55, LPS 0.5 ng/ml alone or with compound, (R)-Bicalutamide 25 uM, Ketodarolutamide 10 uM, D4-abiraterone 10 uM
[18] = experiment 1, PBMCs, LPS 5 ng/ml + drug
[19] = experiment 1, LPS 5 ng/ml 24 hours alone, + (R)-Bicalutamide 25 uM, or + (R)-Bicalutamide 25 uM + Vactosertib 1 uM

| Molecule | Effect on AR PAS in LPS-stimulated THP-1 monocytes (AR signaling pathway) | Effect on TGFbeta PAS in LPS-stimulated THP-1 monocytes [1] | AR Pathway activity scores of sepsis PBMC patients (AR pathway [4]; [11]) | TGFbeta Pathway activity scores of sepsis PBMC patients (TGFbeta pathway [5]; [11]) | Average AR STP activity score (AR signaling pathway; [12]) | Average TGFb STP activity score [1, 12] | AR Pathway activity scores of sepsis PBMC patients (AR pathway [4]; [14]) | Average AR STP activity score (AR signaling pathway; [17]) | Average TGFb STP activity score [1, 17] | also measured |
| --- | --- | --- | --- | --- | --- | --- | --- | --- | --- | --- |
| Etanercept | could reduce; also recorded: could be lowered | could lower; also recorded: could be lowered | 28 and 20 | 42 and 30 and 31 |  |  |  |  |  | Average AR STP activity score (AR signaling pathway; [8]): 6.33 normalized scores; Average AR STP activity score (AR signaling pathway; [9]): 5.00 normalized scores and 6.00 normalized scores; Average TGFb STP activity score [1, 8]: 11.33 normalized scores; Average TGFb STP activity score [1, 9]: 9.67 normalized scores and 11.67 normalized scores; Healthy volunteers showing AR PAS decrease (AR pathway [2]): 2 out of 4; AR PAS (AR pathway [2]; [10]): 21 and 31 (2×) and 18; Healthy volunteers showing TGFbeta PAS decrease (TGFbeta pathway [3]): 3 out of 4; TGFbeta PAS (TGFbeta pathway [3]; [10]): 29 and 34 and 31 (2×) |
| CC1(C)C(=O)N(c2ccc(C#N)c(C(F)(F)F)c2)C(=S)N1c1ccc(C(N)=O)c(F)c1 [N-desmethyl Enzalutamide] | could reduce |  |  |  | 6.67 normalized scores | 13.33 normalized scores |  |  |  |  |
| CCOC(=O)C1=CCCC[C@H]1S(=O)(=O)Nc1ccc(F)cc1Cl [Resatorvid] | could reduce; also recorded: could be lowered | could lower; also recorded: could be lowered |  |  |  |  | 24 and 31 |  |  | Average AR STP activity score (AR signaling pathway; [13]): 3.67 normalized scores; Average TGFb STP activity score [1, 13]: 8.00 normalized scores; TGFbeta Pathway activity scores of sepsis PBMC patients (TGFbeta pathway [5]; [14]): 31 and 37 and 35 and 34 |
| Cc1cccc(-c2nn3c(c2-c2ccnc4ccc(C(N)=O)cc24)CCC3)n1 [Galunisertib] |  |  |  |  |  |  | 23 |  |  |  |
| Cc1cccc(-c2[nH]c(CNc3ccccc3F)nc2-c2ccc3ncnn3c2)n1 [Vactosertib] |  |  | 21 and 22 | 31 |  |  |  |  |  | Average PAS AR [6, 15]: 17.1 normalized scores; Average PAS AR [6, 16]: 3.8 normalized scores; Effect on the AR signaling pathway ([6]; Vactosertib pretreatment followed by LPS): No effect; Average PAS TGFbeta [7, 15]: 9.3 normalized scores; Average PAS TGFbeta [7, 16]: 1.7 normalized scores; Average AR STP activity score (AR signaling pathway; [9]): 8.67 normalized scores; Average TGFb STP activity score [1, 9]: 12.00 normalized scores; Patients showing reduction in the AR pathway (not significant) (AR pathway [4]; sepsis patient PBMCs, Etanercept 10 ug/ml in combination): 2/3 |
| C[C@]12CCC(=O)C=C1CC[C@@H]1[C@@H]2CC[C@]2(C)C(c3cccnc3)=CC[C@@H]12 [D4-abiraterone] | could reduce | could lower |  |  |  |  | 24 (3×) and 33 | 2.67 normalized scores | 11.67 normalized scores | TGFbeta Pathway activity scores of sepsis PBMC patients (TGFbeta pathway [5]; [14]): 32 and 41 and 36 and 40 |
| N#Cc1ncc(N2C(=O)C3(CCC3)N(c3ccc(C(N)=O)c(F)c3)C2=S)cc1C(F)(F)F [N-Desmethyl-Apalutamide] | could reduce |  |  |  | 7.33 normalized scores | 13.33 normalized scores |  |  |  |  |
| O=C(Nc1nc2cccc(-c3ccc(CN4CCS(=O)(=O)CC4)cc3)n2n1)C1CC1 [Filgotinib] |  | could lower |  |  |  |  |  |  |  |  |
| C[C@](O)(CS(=O)(=O)c1ccc(F)cc1)C(=O)Nc1ccc(C#N)c(C(F)(F)F)c1 [(R)-Bicalutamide] | could reduce | could lower | 21 | 31 and 32 | 6.67 normalized scores | 14.00 normalized scores |  | 1.67 normalized scores | 11.67 normalized scores | Healthy volunteers showing AR decrease (AR pathway [2]; [18]): 3 out of 6; AR PAS (AR pathway [2]; [19]): 29 and 26 (2×) and 30 and 25 and 21; Healthy volunteers showing AR PAS decrease (AR pathway [2]): 3 out of 4; AR PAS (AR pathway [2]; [10]): 26 and 28 and 30 and 24; Healthy volunteers showing TGFbeta decrease (TGFbeta pathway [3]; [18]): 3 out of 6; TGFbeta PAS (TGFbeta pathway [3]; [19]): 29 and 32 and 35 and 31 and 27 and 40; Healthy volunteers showing TGFbeta PAS decrease (TGFbeta pathway [3]): 3 out of 4; TGFbeta PAS (TGFbeta pathway [3]; [10]): 31 and 35 and 33 and 32 |
| CC(=O)c1cc(C(=O)N[C@@H](C)Cn2ccc(-c3ccc(C#N)c(Cl)c3)n2)[nH]n1 [Ketodarolutamide] | could reduce |  |  |  |  |  |  | 2.33 normalized scores | 12.00 normalized scores |  |
